Measured values from US20180318311A1, “TRICYCLIC 2-QUINOLINONES AS ANTIBACTERIALS” (priority 2017, published 2018).
≈ marks a conversion by molar mass, not a printed value. Where a name gives a salt, the structure may show the parent alone. Read-outs that look alike come from different tables or passages of the source.

Columns and labels:
Assay type in all cases: cell-based
[1] = system: S. aureus ATCC 49951 (NB01006); test: MIC by broth microdilution, S. aureus NB01006; settings: Staphylococcus aureus, ATCC49951, CAMHB, 35° C., 20 hours, read-out: Antibacterial activity (MIC) NB01006
Outline: (§1)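 CAMHB, ~5×10^5 CFU/mL, 2-fold serial dilutions (final DMSO 1%), 35° C, ambient air, 20 h. Read OD600 plus visual check; MIC = lowest conc. with no visible growth, μg/mL.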

[2] = system: S. aureus NB01006-AVR005, gyrA (S84L), grlA (580F) and grlB (E471K); test: microbe, parasite or virus in culture; settings: Staphylococcus aureus, 20 h, read-out: Antibacterial activity (MIC) NB01006-AVR005
Outline: as §1

[3] = system: S. aureus NB01080 fluoroquinolone-resistant clinical isolate; test: MIC by broth microdilution, S. aureus NB01080; settings: Staphylococcus aureus, CAMHB, 35° C., 20 hours, read-out: Antibacterial activity (MIC) NB01080
Outline: as §1

[4] = system: E. faecalis ATCC 29212 (NB04001); test: MIC by broth microdilution, E. faecalis NB04001; settings: Enterococcus faecalis, ATCC29212, CAMHB, 35° C., 20 hours, read-out: Antibacterial activity (MIC) NB04001
Outline: as §1

[5] = system: S. pneumoniae ATCC 25922 (NB07001); test: MIC by broth microdilution, S. pneumoniae NB07001; settings: Streptococcus pneumoniae, read-out: Antibacterial activity (MIC) NB07001
Outline: as §1

[6] = system: E. coli ATCC 25922 (NB27001); test: MIC by broth microdilution, E. coli NB27001; settings: Escherichia coli, ATCC25922, CAMHB, 35° C., 20 hours, read-out: Antibacterial activity (MIC) NB27001
Outline: as §1

[7] = system: P. aeruginosa NB52019, wild-type PAO1 strain; test: MIC by broth microdilution, P. aeruginosa NB52019; settings: Pseudomonas aeruginosa, CAMHB, 35° C., 20 hours, read-out: Antibacterial activity (MIC) NB52019
Outline: as §1

[8] = ATCC25922, S. pneumoniae, CAMHB supplemented with 5% lysed horse blood, 35° C., 20 hours

Row | SMILES | MIC [1] [µg/mL] | MIC [2] [µg/mL] | MIC [3] [µg/mL] | MIC [4] [µg/mL] | MIC [5, 8] [µg/mL] | MIC [6] [µg/mL] | MIC [7] [µg/mL] | MIC ([5]; ATCC25922, 20 h) [µg/mL]
1 | C[C@H]1COc2c(N3CC[C@@H](C4(N)CC4)C3)c(F)cc3cc(C#N)c(=O)n1c23.O=C(O)C(F)(F)F [Example 5, (S)-10-((R)-3-(1-aminocyclopropyl)pyrrolidin-1-yl)-9-fluoro-3-methyl-5-oxo-2,3-dihydro-5H-[1,4]oxazino[2,3,4-ij]quinoline-6-carbonitrile trifluoroacetate salt] | < 1 | < 1 | < 1 | < 1 | < 1 | 1 to 32 | 1 to 32 | 
2 | C[C@H]1COc2c(N3CC4CC4(N)C3)c(F)cc3ccc(=O)n1c23 (stereo partly drawn) [Example 6.2, (3S)-10-(1-amino-3-azabicyclo[3.1.0]hexan-3-yl)-9-fluoro-3-methyl-2,3-dihydro-5H-[1,4]oxazino[2,3,4-ij]quinolin-5-one hydrochloride salt] | 1 to 32 | 1 to 32 | < 1 | 1 to 32 |  | 1 to 32 | > 32 | 1 to 32
3 | C[C@H]1COc2c(N3CC[C@@H](C4(N)CC4)C3)c(F)cc3c(CN)cc(=O)n1c23 [Example 7.9, (S)-10-((R)-3-(1-aminocyclopropyl)pyrrolidin-1-yl)-7-(aminomethyl)-9-fluoro-3-methyl-2,3-dihydro-5H-[1,4]oxazino[2,3,4-ij]quinolin-5-one] | < 1 | < 1 | 1 to 32 (≈ 2.68 to 85.9 µM) | < 1 |  | < 1 | 1 to 32 (≈ 2.68 to 85.9 µM) | < 1
4 | C[C@H]1COc2c(N3CC4CC4(N)C3)c(F)cc3c(CN)cc(=O)n1c23 (stereo partly drawn) [Example 7.10, (3S)-10-(1-amino-3-azabicyclo[3.1.0]hexan-3-yl)-7-(aminomethyl)-9-fluoro-3-methyl-2,3-dihydro-5H-[1,4]oxazino[2,3,4-ij]quinolin-5-one] | < 1 | < 1 | 1 to 32 (≈ 2.9 to 92.9 µM) | 1 to 32 (≈ 2.9 to 92.9 µM) |  | < 1 | 1 to 32 (≈ 2.9 to 92.9 µM) | < 1
5 | CC1Cc2c(N3CC[C@@H]([C@H](C)N)C3)c(F)cc3cc(C(=O)O)c(=O)n1c23 (stereo partly drawn) [Example 9.2] | < 1 | > 32 | 1 to 32 (≈ 2.78 to 89 µM) | < 1 |  | 1 to 32 (≈ 2.78 to 89 µM) | > 32 | < 1
6 | CC1Cc2c(N3CCNCC3)c(F)cc3cc(C(=O)O)c(=O)n1c23 (stereo not drawn) [Example 9.3, 8-fluoro-2-methyl-4-oxo-9-(piperazin-1-yl)-1,2-dihydro-4H-pyrrolo[3,2,1-ij]quinoline-5-carboxylic acid] | > 32 | > 32 | > 32 | > 32 | > 32 | 1 to 32 (≈ 3.02 to 96.6 µM) | > 32 | 
7 | C[C@H]1CNc2c(N3CC[C@@H](C4(N)CC4)C3)c(F)cc3cc(C(=O)O)c(=O)n1c23.Cl [Example 10, (S)-10-((R)-3-(1-aminocyclopropyl)pyrrolidin-1-yl)-9-fluoro-3-methyl-5-oxo-2,3-dihydro-1H,5H-pyrido[1,2,3-de]quinoxaline-6-carboxylic acid hydrochloride salt] | 1 to 32 | > 32 | 1 to 32 | 1 to 32 | 1 to 32 | 1 to 32 | > 32 | 
8 | C[C@H]1CSc2c(N3CC[C@@H](C4(N)CC4)C3)c(F)cc3cc(C(=O)O)c(=O)n1c23.Cl [Example 11, (S)-10-((R)-3-(1-aminocyclopropyl)pyrrolidin-1-yl)-9-fluoro-3-methyl-5-oxo-2,3-dihydro-5H-[1,4]thiazino[2,3,4-ij]quinoline-6-carboxylic acid hydrochloride salt] | < 1 | 1 to 32 | < 1 | < 1 | < 1 | 1 to 32 | > 32 | 
9 | C[C@H]1COc2c(N3CC[C@@H](C4(N)CC4)C3)cc(F)c3cc(C(=O)O)c(=O)n1c23 [Example 12.1, (S)-10-((R)-3-(1-aminocyclopropyl)pyrrolidin-1-yl)-8-fluoro-3-methyl-5-oxo-2,3-dihydro-5H-[1,4]oxazino[2,3,4-ij]quinoline-6-carboxylic acid trifluoroacetate salt] | < 1 | < 1 | < 1 | < 1 |  | < 1 | 1 to 32 | < 1
